This note sets out measurements from patent US20180228780A1, “3-(1H-PYRROLO[2,3-C]PYRIDIN-2-YL)-1H-INDAZOLES AND THERAPEUTIC USES THEREOF” (Samumed, LLC, priority 2015, published 2018).

A word on the pEC50: it is the EC50 on a negative log10 scale, so that one unit is a factor of ten. A lower pEC50 goes with a high EC50.

Holding throughout (type): cell-based
For test [1], the system named is Wnt activity (Sp5-Luc reporter, SW480 colon carcinoma cells). The test can be described thus: Screening assay for Wnt activity: Sp5-Luc reporter gene assay in SW480 cells. The note with it: Homo sapiens; for pEC50: SW480 Sp5-Luc reporter, overnight incubation; for inhibition at 10 µM: SW480, read-out: percent inhibition at 10 μM. Put shortly: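 SW480 colon carcinoma cells stably carrying Sp5 promoter (eight TCF/LEF sites)-driven firefly luciferase, plated at 4,000 cells/well in 1% FBS medium and incubated overnight at 37° C. Luminescence normalised to DMSO-only cells; EC50 from four-parameter variable-slope nonlinear regression.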

Test [2] concerns SW480 colon cancer cells. Description: Cell viability assay (CellTiter-Blue) in SW480 colon cancer cells. The note with it: Homo sapiens; for pEC50: 96 h, SW480 cell viability, four days incubation; for inhibition at 10 µM: SW480, read-out: percent inhibition at 10 μM. Put shortly: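 Fluorescence from resazurin reduced to resorufin by metabolically active cells was the read-out, taken after ~3 h with CellTiter-Blue.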

The subject of test [3] is Primary human fibroblasts derived from IPF patients (LL29 cells). The test can be described thus: Inhibition of the fibrotic process: αSMA staining in TGF-β1-treated LL29 fibroblasts. The note with it: Fibroblast; for pEC50: 96 h, LL29 cells, TGF-β1 20 ng/mL, 4 days, % αSMA-positive cells. Put shortly: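 LL29 IPF-patient lung fibroblasts plated in F12 with 1% FBS, treated with TGF-β1 plus compound; TGF-β1/DMSO wells served as controls. After 4 days incubation, SYTOX green (1 μM final) added for 30 min at room temperature; αSMA staining used as fibrosis read-out.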

The subject of test [4] is primary human mesenchymal stem cells (hMSCs). Description: Induction of chondrogenesis in hMSCs (nodule imaging, Rhodamine B / Nile Red). The note with it: 6 days; for EC50: concentration required to induce 50% levels of chondrogenesis vs TGF-β3, read-out: Conc (nM) of 50% TGF-β3 activity; for Emax: relative to TGF-β3 (10 ng/mL) positive control, read-out: Max. Activity as % TGF-β3 activity. The source says: Representative compounds were screened using primary human mesenchymal stem cells (hMSCs) to determine their ability to induce chondrogenesis (process by which cartilage is developed).
Primary human mesenchymal stem cells (hMSCs) were purchased from Lonza (Walkersville, Md.) and expanded in Mesenchymal Stem Cell Growth Media (Lonza). Cells between passage 3 and 6 were used for the experiments.
Area of nodules in each well was normalized to the average of 3 DMSO treated wells on the same plate using Excel (Microsoft Inc.). The normalized averages (fold change over DMSO) of 2 or 3 replicate wells for each compound concentration were calculated. Due to solubility limitations of some of the compounds, curve fitting was incomplete leading to inaccurate EC50 determinations.
Using TGF-β3 as a positive control, the concentration of representative compounds required to induce 50% levels of chondrogenesis is reported. In addition, the maximum activity of each compound and the respective dose that each compound reached maximum chondrogenesis activity is reported.

For test [5], the system named is IL-6 (THP-1 cells). The test can be described thus: IL-6 inhibition in THP-1 monocytes (HTRF). The note with it: Homo sapiens; for pEC50: IL-6 inhibition, THP-1 cells, HTRF, 10-point dose-response starting from 10 μM. Put shortly:
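THP-1 cells serum-reduced (1% FBS, 24 h), plated 5000/well, stimulated with 500 ng/mL […] after 2 h and incubated a further 22 h at 37 °C. Secreted IL-6 quantified by HTRF (665/620 nm ratio), normalized to DMSO; EC50 from four-parameter fit, duplicates.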
A general note: Time-resolved FRET reads energy transfer from a long-lived donor to a nearby acceptor.

pEC50: −log10 of the molar value.

For `Cc1ccncc1-c1ccc2[nH]nc(-c3cc4ccncc4[nH]3)c2c1` [Compound 257, 5-(4-Methylpyridin-3-yl)-3-(1H-pyrrolo[2,3-c]pyridin-2-yl)-1H-indazole], the negative logarithm of the EC50 (pEC50) in test [1] was 6.72; in test [2] it was 6.96; in test [3] it was 6.32; in test [5], 7.59. Besides, in test [4], the EC50 stood at 300 nM. For the same molecule, the Emax in test [4] worked out at 161%.
As to `CN(C)Cc1cncc(-c2cc3c(-c4cc5c(-c6cccc(F)c6)cncc5[nH]4)n[nH]c3cc2F)c1` [Compound 992, 1-(5-(6-Fluoro-3-(4-(3-fluorophenyl)-1H-pyrrolo[2,3-c]pyridin-2-yl)-1H-indazol-5-yl)pyridin-3-yl)-N,N-dimethylmethanamine], the negative-log EC50 (pEC50) in test [1] is 6.02; in test [2], 6.53; in test [3], 6.04; in test [5], 7.13. Further, the Emax in test [4] turned out to be 21%.
In the case of `CCCC(=O)Nc1cncc(-c2ccc3[nH]nc(-c4cc5c(-c6ccncc6)cncc5[nH]4)c3c2)c1` [Compound 129, N-(5-(3-(4-(Pyridin-4-yl)-1H-pyrrolo[2,3-c]pyridin-2-yl)-1H-indazol-5-yl)pyridin-3-yl)butyramide], the inhibition at 10 µM in test [1] was determined as 25.5%; in test [2], 15.5%. The pEC50 in test [1] was under 5.00; in test [2], under 5.00; in test [3] it was 5.21; in test [5] it was 5.99. In addition, in test [4], the EC50 was found to be 100 nM. Further, the Emax in test [4] is 124%.
Take `CCCCC(=O)Nc1cncc(-c2ccc3[nH]nc(-c4cc5c(-c6ccoc6)cncc5[nH]4)c3c2)c1` [Compound 327]: the negative logarithm of the EC50 (pEC50) in test [1] is 6.04; in test [2], 6.53; in test [3], 5.87; in test [5] it was 6.16. In test [4], the EC50 amounted to 30 nM. Moreover, in test [4], the Emax worked out at 122%.
`c1cncc(-c2cncc3[nH]c(-c4n[nH]c5ccc(-c6cncnc6)cc45)cc23)c1` [Compound 111, 3-(4-(pyridin-3-yl)-1H-pyrrolo[2,3-c]pyridin-2-yl)-5-(pyrimidin-5-yl)-1H-indazole]: the inhibition at 10 µM came out at 14.5% in test [1]; 7.5% in test [2]; 46.5% in test [3] (read-out: percent inhibition at 10 μM); 42.4% in test [5] (THP-1, read-out: percentage in parentheses printed under EC50 >10). Further, the negative logarithm of the EC50 (pEC50) in test [1], in test [2], in test [3] and in test [5] was under 5.00 throughout. Besides, the EC50 in test [4] was determined as 2700 nM. The Emax in test [4] was found to be 58%.
Consider `CC(C)CC(=O)Nc1cncc(-c2ccc3[nH]nc(-c4cc5c(N6CCCCC6)cncc5[nH]4)c3c2)c1` [Compound 170], for which the negative-log EC50 (pEC50) was 6.42 in test [1], 6.55 in test [2], 6.26 in test [3] and 7.34 in test [5]. Further, the EC50 in test [4] was found to be 2700 nM. In test [4], the Emax amounted to 113%.
Consider `FC1(F)CCN(Cc2cncc(-c3ccc4[nH]nc(-c5cc6c(-c7cccnc7)cncc6[nH]5)c4c3)c2)C1` [Compound 110, 5-(5-((3,3-Difluoropyrrolidin-1-yl)methyl)pyridin-3-yl)-3-(4-(pyridin-3-yl)-1H-pyrrolo[2,3-c]pyridin-2-yl)-1H-indazole], for which the pEC50 in test [1] was 6.28; in test [2], 5.89; in test [3] it was 6.47; in test [5] it was 6.45. The EC50 in test [4] amounted to 900 nM. Also, in test [4], the Emax was 256%.
Regarding `CCNCc1cncc(-c2ccc3[nH]nc(-c4cc5c(-c6ccccc6F)cncc5[nH]4)c3c2)c1` [Compound 62, N-((5-(3-(4-(2-Fluorophenyl)-1H-pyrrolo[2,3-c]pyridin-2-yl)-1H-indazol-5-yl)pyridin-3-yl)methyl)ethanamine], the inhibition at 10 µM in test [1] was found to be 51%. For the same molecule, the negative logarithm of the EC50 (pEC50) is under 5.00 in test [1], 5.33 in test [2], 5.01 in test [3] and 5.12 in test [5]. In test [4], the EC50 worked out at 100 nM. The Emax in test [4] came to 86%.
